A short description of data set [1]: In vitro stability, rat liver lysosome incubation.
Procedure: All linker compounds were solubilized in DMSO to form each 10 mM stock solution. Dosing solution for each linker was prepared by serial dilution of each stock solution using 1:3 acetonitrile:water. All solutions were kept on ice during the experiment.
Rat lysosomes were pre-warmed in a 37° C. water bath in an appropriate volume to collect samples over a time course from 0 minutes through 6 hours. Incubating lysosomes were mixed well just prior to sampling to give a homogenous mixture. Aliquots of lysosomes were removed at appropriate time points, added to cold stopping solution, which was methanol containing an appropriate internal standard, and mixed rigorously. The samples were centrifuged at 4000 RPM for 10 minutes after which equal volumes of supernatant were diluted with cold deionized water. The samples were ready for analysis.
(§1) A Thermo LX-2 ultra-performance liquid chromatography system coupled with a Sciex API5000 triple quadrupole mass spectrometer was used for the analysis. The payload and drug-linkers were retained and separated by a C18 column and detected by the mass spectrometer. […] Samples were kept in cold stack set at 5° C.
A short description of data set [2]: Solubility of drug-linkers in 20% MeCN/H2O. Particulars: aqueous with cosolvent or surfactant or cyclodextrin.
Data set [3] in a line: In vitro stability, human whole blood incubation.
Procedure: Human blood was collected the morning of the experiment from at least 3 individuals using K2EDTA as the anticoagulant. An equal volume from each individual was combined for use in the experiment. The experiment started no more than 2 hours after the blood collection. All drug-linker conjugates were solubilized in DMSO to form each 10 mM stock solution. Dosing solution for each linker was prepared by serial dilution of each stock solution using 1:3 acetonitrile:water. All solutions were kept on ice during the experiment.
Human blood was pre-warmed in a 37° C. water bath in an appropriate volume to collect samples over a time course from 0 through 6 hours. Incubating blood was mixed well just prior to sampling to give a homogenous mixture. Aliquots of blood were removed at appropriate time points, added to cold stopping solution, which was methanol containing an appropriate internal standard, and mixed rigorously. The samples were centrifuged at 4000 RPM for 10 minutes after which equal volumes of the supernatant fractions were diluted with cold deionized water. The samples were then ready for analysis.
as §1
Data set [4] in a line: physchem. The conditions noted are these: aqueous with cosolvent or surfactant or cyclodextrin.
Assay in data set [5]: not given
This is another data set of the same source.

Setting [6] is: Matrix spiking (time 0 sample, lysosomes pretreated with stopping reagent).

Where two headings read alike, the source gives them in different places. Bounds are passed on as bounds.

Consider four compounds from patent US10550190B2 (Merck Sharp & Dohme Corp., priority 2014, dated 2020).

As to `C[C@@H]1C[C@H]2[C@@H]3CCC4=CC(=O)C=C[C@]4(C)[C@@]3(F)[C@@H](O)C[C@]2(C)[C@@]1(O)C(=O)COP(=O)(O)OP(=O)(O)Oc1ccc(NC(=O)COC2C#CCCCCC2)cc1` (stereo partly shown) [Compound 3-4], the “Calculated Conc. for each compound in rat lysosomal lysate” value is given as 1252 nM in data set [1] (37° C., 0 m); 501.28 nM in data set [1] (37° C., 5 m); 149.18 nM in data set [1] (37° C., 10 m); 3128.83 nM in data set [1] (setting [6]). Moreover, in data set [1] (after 10 minutes incubation), the “detectability of drug-linker in rat lysosomal extract (in words)” value was “no longer detectable”. In data set [2], the solubility (in general, how much of the substance goes into solution per volume) was over 10000 µg/mL. Besides, the “Calculated Conc. for each compound in human whole blood” value was 1382 nM in data set [3] (37° C., 0 m); 1325 nM in data set [3] (37° C., 5 m); 1398 nM in data set [3] (37° C., 15 m); 1250 nM in data set [3] (37° C., 30 m); 1141 nM in data set [3] (37° C., 1 hr); 1703 nM in data set [3] (37° C., 2 hr).

As to `C[C@@H]1C[C@H]2[C@@H]3CCC4=CC(=O)C=C[C@]4(C)[C@@]3(F)[C@@H](O)C[C@]2(C)[C@@]1(O)C(=O)COP(=O)(O)OCCNC(=O)COC1C#CCCCCC1` (stereo partly drawn) [Compound 4-3, 2-(2-(cyclooct-2-yn-1-yloxy)acetamido)ethyl (2-((8S,9R,10S,11S,13S,14S,16R,17R)-9-fluoro-11,17-dihydroxy-10,13,16-trimethyl-3-oxo-6,7,8,9,10,11,12,13,14,15,16,17-dodecahydro-3H-cyclopenta[a]phenanthren-17-yl)-2-oxoethyl) hydrogen phosphate], the “Calculated Conc. for dexamethasone in rat lysosomal lysate” value by setting is: (0 min) 0.9 nM; (5 min) 14.5 nM; (10 min) 14.2 nM; (15 min) 22.3 nM; (30 min) 28.9 nM; (1 h) 41.6 nM. Further, the “Calculated Conc. for dexamethasone in rat lysosomal lysate” value is recorded as 72.5 nM (2 h), 90.2 nM (3 h) and 141.9 nM (6 h). For the same compound, the “Calculated Conc. for each compound in rat lysosomal lysate” value reads like this: (0 min) 888.8 nM; (5 min) 1156.1 nM; (10 min) 983.4 nM; (15 min) 1032.6 nM; (30 min) 980.1 nM; (1 h) 882.4 nM. For the same compound, the “Calculated Conc. for each compound in rat lysosomal lysate” value (2 h) is 880.1 nM, the “Calculated Conc. for each compound in rat lysosomal lysate” value (3 h) was 903.8 nM and the “Calculated Conc. for each compound in rat lysosomal lysate” value (6 h) is on record as 858.9 nM. In data set [4], this compound gave a solubility of over 10000 µg/mL. The “Calculated Conc. for each compound in human whole blood” value in data set [5] (0 min) was 1539 nM; in data set [5] (20 min), 1861 nM; in data set [5] (1 h) it was 1619 nM; in data set [5] (3 h), 1677 nM; in data set [5] (6 h), 2040 nM. Moreover, the “Calculated Conc. for dexamethasone in human whole blood” value in data set [5] (20 min) is recorded as 0 nM; in data set [5] (1 h) it was 0 nM; in data set [5] (3 h), 1 nM; in data set [5] (6 h), 3 nM.

On to `C[C@@H]1C[C@H]2[C@@H]3CCC4=CC(=O)C=C[C@]4(C)[C@@]3(F)[C@@H](O)C[C@]2(C)[C@@]1(O)C(=O)COP(=O)(O)Oc1ccc(NC(=O)COC2C#CCCCCC2)cc1` (stereo partly drawn) [Compound 5-3, 4-(2-(cyclooct-2-yn-1-yloxy)acetamido)phenyl (2-((8S,9R,10S,11S,13S,14S,16R,17R)-9-fluoro-11,17-dihydroxy-10,13,16-trimethyl-3-oxo-6,7,8,9,10,11,12,13,14,15,16,17-dodecahydro-3H-cyclopenta[a]phenanthren-17-yl)-2-oxoethyl) hydrogen phosphate], for which the “Calculated Conc. for each compound in rat lysosomal lysate” value in data set [1] (37° C., 0 m) is 1394.08 nM; in data set [1] (37° C., 5 m), 1295.86 nM; in data set [1] (37° C., 10 m), 1278.4 nM; in data set [1] (37° C., 15 m), 1407.73 nM; in data set [1] (37° C., 30 m) it was 1175.39 nM; in data set [1] (37° C., 1 hr), 970.65 nM. Moreover, the “Calculated Conc. for each compound in rat lysosomal lysate” value is on record as 743.45 nM in data set [1] (37° C., 2 hr); 500.41 nM in data set [1] (37° C., 3 hr); 221.03 nM in data set [1] (37° C., 6 hr); 2555.29 nM in data set [1] (setting [6]). Besides, in data set [2], the solubility is over 10000 µg/mL. In addition, the “Calculated Conc. for each compound in human whole blood” value in data set [3] (37° C., 0 m) is on record as 1299 nM; in data set [3] (37° C., 5 m), 1251 nM; in data set [3] (37° C., 15 m), 1276 nM; in data set [3] (37° C., 30 m), 1111 nM; in data set [3] (37° C., 1 hr) it was 937 nM; in data set [3] (37° C., 2 hr) it was 1480 nM.

Turning to `C[C@@H]1C[C@H]2[C@@H]3CCC4=CC(=O)C=C[C@]4(C)[C@@]3(F)[C@@H](O)C[C@]2(C)[C@@]1(O)C(=O)CO` [Dexamethasone, dexamethasone, reference compound], the “Calculated Conc. for each compound in rat lysosomal lysate” value was 1456.4 nM in data set [1] (37° C., 0 m); 1851.2 nM in data set [1] (37° C., 5 m); 1640.8 nM in data set [1] (37° C., 10 m); 1666.7 nM in data set [1] (37° C., 15 m); 1602.6 nM in data set [1] (37° C., 30 m); 1576.8 nM in data set [1] (37° C., 1 hr). In addition, the “Calculated Conc. for each compound in rat lysosomal lysate” value in data set [1] (37° C., 2 hr) is 1681.0 nM; in data set [1] (37° C., 3 hr) it was 1689.7 nM; in data set [1] (37° C., 6 hr) it was 1689.8 nM; in data set [1] (setting [6]), 2059.0 nM. In addition, the “Calculated Conc. for each compound in human whole blood” value in data set [3] (37° C., 0 m) was 1687 nM; in data set [3] (37° C., 20 m), 2409 nM; in data set [3] (37° C., 1 hr), 2224 nM; in data set [3] (37° C., 3 hr) it was 1502 nM; in data set [3] (37° C., 6 hr) it was 2792 nM; in data set [3] (Matrix spiking (time 0 sample, blood pretreated with stopping reagent)), 2939 nM.
